The values below come from US4440943A, “Phenoxiodinin-5-ium antimicrobial compounds” (The Dow Chemical Company, priority 1982, dated 1984).

Counter-ions that a name gives are not always drawn. Like-named read-outs stand apart in the source and are kept apart here.

Type in all cases: cell-based
The subject of test [1] is Streptococcus mutans. Briefly: Agar dilution MIC vs Streptococcus mutans (trypticase soy agar). The settings on record: first screened at 500 ppm; for MIC: read-out: Minimum inhibitory concentration, Sm. Here is the method:
(§1) A tube containing 30 ml of trypticase soy agar was melted and warmed to 45° C. The test compound was added to the tube at a concentration of 0.05% (500 ppm). The mixture was stirred and poured into plates to harden. When hardened, the plates were inoculated with various aerobic and anaerobic organisms. The aerobic plates were incubated at 37° C. for 24 hours and then read for bacterial growth. The same plates were again incubated at 30° C. for an additional 48 hours at which point they were checked for yeast and fungal growth. The anaerobic plates were incubated at 37° C. in an anaerobic chamber and read at 48 hours.
(§2) After the initial readings, compounds showing sufficient activity were re-tested at various concentrations to determine the minimum inhibitory concentration (MIC) of the compounds of the invention against various bacteria and fungi.
In general terms: Agar dilution tests growth on a series of plates holding different concentrations.

For test [2], the system named is Staphylococcus aureus. The test is described as follows: Agar dilution MIC vs Staphylococcus aureus (trypticase soy agar). The settings on record: first screened at 500 ppm; for MIC: read-out: Minimum inhibitory concentration, Sa. Here is the method: as §1, §2
Test [3] deals with Streptococcus mutans (ATCC 10449). Briefly: MIC and MBC vs Streptococcus mutans, Todd Hewitt broth, standard dilution. The settings on record: for MBC: read-out: MBC (minimum bactericidal concentration). As for the experimental part:
In another procedure, the minimum inhibitory concentration (MIC) and minimum bactericidal concentration (MBC) were determined in ppm for various compounds of the invention against the bacteria, Streptococcus mutans (ATCC 10449). The testing was performed using Todd Hewitt broth and standard dilution techniques.

Test [4] deals with Trichophyton mentagrophytes. The test is described as follows: Agar dilution MIC vs Trichophyton mentagrophytes (trypticase soy agar). The settings on record: first screened at 500 ppm. As for the experimental part: as §1, §2
Test [5] has as its system Bacillus subtilis. The test is described as follows: Agar dilution MIC vs Bacillus subtilis (trypticase soy agar). The settings on record: first screened at 500 ppm; for MIC: read-out: Minimum inhibitory concentration, Bs. As for the experimental part:
as §1, §2

The subject of test [6] is Aspergillus fumigatus. The test is described as follows: Agar dilution MIC vs Aspergillus fumigatus (trypticase soy agar). The settings on record: first screened at 500 ppm, read-out: Minimum inhibitory concentration, Af. As for the experimental part: as §1, §2
Test [7] concerns Streptococcus mutans. Briefly: Acid inhibition in Streptococcus mutans (Trypticase-yeast medium with sucrose, NaOH titration). The settings on record: S. mutans, 48 hours at 37° C.; for minimal effective concentration: Streptococcus mutans, 48 h, read-out: Acid Inhibition (minimum concentration which prevented acid formation). As for the experimental part: In still another operation, the acid inhibiting property of these compounds was tested against the known acid producing organism, Streptococcus mutans. Test tubes containing Trypticase-yeast medium with sucrose were inoculated with S. mutans and incubated for 48 hours at 37° C. The tubes were then titrated with 0.1 N sodium hydroxide.

The test system of test [8] is Salmonella typhosa. Briefly: Agar dilution MIC vs Salmonella typhosa (trypticase soy agar). The settings on record: for MIC: Salmonella enterica, TYPHOSA, read-out: Minimum inhibitory concentration, St, Salmonella typhosa, first screened at 500 ppm; for Minimum inhibitory concentration, St: Salmonella typhosa, first screened at 500 ppm. As for the experimental part:
as §1, §2

The test system of test [9] is Proteus mirabilis. The test is described as follows: Agar dilution MIC vs Proteus mirabilis (trypticase soy agar). The settings on record: first screened at 500 ppm; for MIC: read-out: Minimum inhibitory concentration, Pm. As for the experimental part:
as §1, §2

Test [10] relates to Escherichia coli. Briefly: Agar dilution MIC vs Escherichia coli (trypticase soy agar). The settings on record: first screened at 500 ppm; for MIC: read-out: Minimum inhibitory concentration, Ec. Here is the method: as §1, §2
Test [11] concerns Candida pelliculosa. The test is described as follows: Agar dilution MIC vs Candida pelliculosa (trypticase soy agar). The settings on record: Hansenula anomala, first screened at 500 ppm, read-out: Minimum inhibitory concentration, Cp. Here is the method: as §1, §2
The subject of test [12] is Aspergillus niger. The test is described as follows: Agar dilution MIC vs Aspergillus niger (trypticase soy agar). The settings on record: first screened at 500 ppm, read-out: Minimum inhibitory concentration, An. As for the experimental part:
as §1, §2

Setting [13] is: Streptococcus mutans ATCC 10449, Todd Hewitt broth.
Where [14] appears, read: Streptococcus mutans, ATCC10449, Streptococcus mutans ATCC 10449, Todd Hewitt broth.
[15] abbreviates: Streptococcus mutans ATCC 10449, Todd Hewitt broth, dihydrate.
Where [16] appears, read: Streptococcus mutans ATCC 10449, Todd Hewitt broth, monohydrate.
Where [17] appears, read: Streptococcus mutans ATCC 10449, Todd Hewitt broth, hemihydrate.
Setting [18] is: Streptococcus mutans, ATCC10449, Streptococcus mutans ATCC 10449, Todd Hewitt broth, read-out: MIC.

As for `O=C(c1ccc2c(c1)[I+]c1cc(C(=O)C34CC5CC(CC(C5)C3)C4)ccc1O2)C12CC3CC(CC(C3)C1)C2` (single isomer, unassigned) [5(a)], in test [1], the “Minimum inhibitory concentration, Sm” value was 3.12 PPM. The “Minimum inhibitory concentration, Sa” value in [2] came to 12.5 PPM. This compound also came in with an MIC in [3] (setting [13]) of 3.12 ppm. In test [3] (setting [14]), the MBC was 3.12 µg/mL.

On to `O=C(c1ccc2c(c1)[I+]c1cc(C(=O)C34CC5CC(CC(C5)C3)C4)ccc1O2)C12CC3CC(CC(C3)C1)C2` (single isomer, unassigned) [5(b)], for which the “Minimum inhibitory concentration, Sm” value in [1] is recorded as 0.78 PPM. Also, the “Minimum inhibitory concentration, Sa” value in test [2] is 0.78 PPM. In addition, in [3] (setting [13]), the “MBC (minimum bactericidal concentration)” value came out at 1.56 ppm and the MIC came out at 0.78 ppm.

Consider `CC(=O)c1ccc2c(c1)[I+]c1cc(C(C)=O)ccc1O2` [1(a), 3,7-Diacetylphenoxiodinin-5-ium chloride dihydrate], for which the “Minimum inhibitory concentration, Tm” value in test [4] (dihydrate) came out at 500 PPM. Moreover, the MIC in [2] came to 5 µg/mL; in test [3] (setting [15]), 0.49 ppm; in [6], 500 µg/mL; in [8], 10 µg/mL. For the same compound, the “Minimum inhibitory concentration, Bs” value in test [5] (dihydrate) was determined as 5 PPM. The “MBC (minimum bactericidal concentration)” value in test [3] (setting [15]) is given as 0.98 ppm. Besides, in [7] (dihydrate), the “Acid Inhibition (minimum concentration which prevented acid formation)” value (“Acid Inhibition” below) came out at 0.12 ppm. Besides, the “Minimum inhibitory concentration, Pm” value in [9] (dihydrate) is 100 PPM. For the same compound, in [10] (dihydrate), the “Minimum inhibitory concentration, Ec” value turned out to be 50 PPM.

For the compound `CC(=O)c1ccc2c(c1)[I+]c1cc(C(C)=O)ccc1O2` [1(b), 3,7-diacetylphenoxiodinin-5-ium bromide monohydrate], in [4] (monohydrate), the “Minimum inhibitory concentration, Tm” value came to 100 PPM. For the same compound, the “Minimum inhibitory concentration, Bs” value in [5] (monohydrate) is 5 PPM. Besides, in [3] (setting [16]), the “MBC (minimum bactericidal concentration)” value was 0.5 ppm and the MIC worked out at 0.1 ppm. The “Acid Inhibition” value in [7] (monohydrate) is reported as 0.1 ppm. Moreover, the “Minimum inhibitory concentration, St” value in test [8] (monohydrate) was 10 PPM. Further, the “Minimum inhibitory concentration, Pm” value in test [9] (monohydrate) is on record as 500 PPM. For the same compound, the “Minimum inhibitory concentration, Ec” value in test [10] (monohydrate) is listed as 50 PPM.

Take `CC(=O)c1ccc2c(c1)[I+]c1cc(C(C)=O)ccc1O2` [1(c), 3,7-diacetylphenoxiodinin-5-ium bisulfite hemihydrate]: in [4] (hemihydrate), the “Minimum inhibitory concentration, Tm” value is reported as 100 PPM. In addition, in test [5] (hemihydrate), the “Minimum inhibitory concentration, Bs” value turned out to be 1.0 PPM. Further, in [3] (setting [17]), the “MBC (minimum bactericidal concentration)” value was determined as 8.0 ppm and the MIC is recorded as 1.0 ppm. For the same compound, the “Acid Inhibition” value in [7] (hemihydrate) came out at 0.5 ppm. Moreover, in test [8] (hemihydrate), the “Minimum inhibitory concentration, St” value turned out to be 5 PPM. For the same compound, in test [9] (hemihydrate), the “Minimum inhibitory concentration, Pm” value is recorded as 50 PPM. Besides, the “Minimum inhibitory concentration, Ec” value in [10] (hemihydrate) came out at 10 PPM.

Take `CCC(=O)c1ccc2c(c1)[I+]c1cc(C(=O)CC)ccc1O2` [2(a), 3,7-Dipropionylphenoxiodinin-5-ium chloride hemihydrate]: the MIC in test [4] (read-out: Minimum inhibitory concentration, Tm) is 500 µg/mL; in test [3] (setting [17]), 2.0 ppm; in test [8], 50 µg/mL; in test [9], 100 µg/mL; in [10], 50 µg/mL. The “Minimum inhibitory concentration, Sa” value in [2] (hemihydrate) amounted to 10 PPM. Also, the “Minimum inhibitory concentration, Bs” value in test [5] (hemihydrate) is 50 PPM. Moreover, in test [3] (setting [17]), the “MBC (minimum bactericidal concentration)” value is 0.5 ppm. The “Acid Inhibition” value in test [7] (hemihydrate) amounted to 0.1 ppm.

Consider `CCC(=O)c1ccc2c(c1)[I+]c1cc(C(=O)CC)ccc1O2` [2(b)], for which the “Minimum inhibitory concentration, Sa” value in test [2] is reported as 500 PPM. For the same compound, in [5], the “Minimum inhibitory concentration, Bs” value is on record as 500 PPM. Also, in test [3] (setting [13]), the “MBC (minimum bactericidal concentration)” value was determined as 31 ppm and the MIC worked out at 125 ppm. Also, the “Acid Inhibition” value in test [7] worked out at 7.8 ppm.

Regarding `COC(=O)c1ccc2c(c1)[I+]c1cc(C(=O)O)ccc1O2` [3(a), 3-Carboxy-7-(methoxycarbonyl)phenoxiodinin-5-ium chloride monohydrate], the “Minimum inhibitory concentration, Sm” value in test [1] (monohydrate) turned out to be 500 PPM. The “Minimum inhibitory concentration, Tm” value in test [4] (monohydrate) stood at 500 PPM. The “Minimum inhibitory concentration, Sa” value in test [2] (monohydrate) is on record as 5 PPM. The MIC in test [5] turned out to be 1 µg/mL; in test [11] it was 500 µg/mL; in test [3] (setting [18]) it was 2 µg/mL; in [6], 50 µg/mL; in [12] it was 500 µg/mL; in test [8], 10 µg/mL. Moreover, the MIC in test [9] and in test [10] was 10 µg/mL throughout. Also, the MBC in [3] (setting [14]) turned out to be 2 µg/mL. Moreover, the minimal effective concentration in test [7] came to 1 µg/mL.

`CN1CCN(S(=O)(=O)c2ccc3c(c2)[I+]c2cc(S(=O)(=O)N4CCN(C)CC4)ccc2O3)CC1` [4(a), 3,7-bis((4-Methyl-1-piperazinyl)sulfonyl)phenoxiodinin-5-ium bromide, hydrobromide]: the MIC in [2] is 50 µg/mL; in test [5] it was 100 µg/mL; in [3] (setting [18]), ≥ 63 µg/mL; in [8] it was 500 µg/mL; in [10] it was 500 µg/mL. Moreover, the MBC in [3] (setting [14]) was ≥ 63 µg/mL.

With `O=C(O)c1ccc2c(c1)[I+]c1cc(C(=O)O)ccc1O2` [6(a)], the MIC is 500 µg/mL in test [1]; 1 µg/mL in test [2]; 0.5 µg/mL in [5]; 3.9 µg/mL in test [3] (setting [18]); 10 µg/mL in test [8]; 50 µg/mL in test [9]. Also, the MIC in [10] was determined as 5 µg/mL. In addition, the MBC in test [3] (setting [14]) was 3.9 µg/mL. The minimal effective concentration in [7] stood at 3.9 µg/mL.

Consider `CNS(=O)(=O)c1ccc2c(c1)[I+]c1cc(S(=O)(=O)NC)ccc1O2` [7(a), 3,7-Bis(methylaminosulfonyl)phenoxiodinin-5-ium bromide hemihydrate], for which the MIC in test [2] was determined as 500 µg/mL.

For the compound `CNS(=O)(=O)c1ccc2c(c1)[I+]c1cc(S(=O)(=O)NC)ccc1O2` [7(b), 3,7-Bis(methylaminosulfonyl)phenoxiodinin-5-ium chloride], the MIC in [1], in [12], in [8] and in [10] was 500 µg/mL each time.

In the case of `O=S(=O)(c1ccc2c(c1)[I+]c1cc(S(=O)(=O)N3CCOCC3)ccc1O2)N1CCOCC1` [8(a), 3,7-Bis(4-morpholinylsulfonyl)phenoxiodinin-5-ium sulfate hydrate], in test [3] (setting [14]), the MBC was > 125 µg/mL. The MIC in [3] (setting [18]) came to 62.5 µg/mL. Also, the minimal effective concentration in [7] is 8 µg/mL.

With `CN(C)S(=O)(=O)c1ccc2c(c1)[I+]c1cc(S(=O)(=O)N(C)C)ccc1O2` [9(a), 3,7-Bis(dimethylaminosulfonyl)phenoxiodinin-5-ium bromide], the results for the MIC in test [2], in test [5] and in test [3] (setting [18]) were 500 µg/mL, 500 µg/mL and > 125 µg/mL, respectively. In addition, in [3] (setting [14]), the MBC was > 125 µg/mL. For the same compound, in [7], the “Acid Inhibition” value is 0.2 ppm.

As for `CN(C)S(=O)(=O)c1ccc2c(c1)[I+]c1cc(S(=O)(=O)N(C)C)ccc1O2` [9(b), 3,7-Bis(dimethylaminosulfonyl)phenoxidinin-5-ium chloride], in test [2], the “Minimum inhibitory concentration, Sa” value is 500 PPM. In [5], the “Minimum inhibitory concentration, Bs” value was found to be 500 PPM. Also, in test [3] (setting [13]), the “MBC (minimum bactericidal concentration)” value is recorded as > 125 ppm and the MIC is > 125 ppm. Besides, in [7], the “Acid Inhibition” value is recorded as 0.03 ppm.
